US20100286173A1 (priority 2008, published 2010)

Experiment: Measurement of logP values by HPLC on reversed phase columns (EEC directive 79/831 Annex V.A8)
Type: physicochemical
Conditions: pH 2.7, 0.1% formic acid in water / acetonitrile gradient 10% to 95%

SMILES	logp	further results
CC(C)CC(=O)Nc1cccc(CON=C(c2cc(F)cc(C(F)(F)F)c2)c2nnnn2C)n1 [Example 65]	3.89	
CCCCCOC(=O)Nc1ccnc(CON=C(c2ccc(C)c(C(F)(F)F)c2)c2nnnn2C)n1 [Example 52]	4.62	
CCCCCC(=O)Nc1cccc(CON=C(c2cc(F)cc(C(F)(F)F)c2)c2nnnn2C)n1 [Example 45]	4.29	
Cc1c(F)cccc1C(=NOCc1cccc(NC(=O)CC(C)C)n1)c1nnnn1C [Example 73]	3.53	
C#CCCOC(=O)Nc1cccc(CON=C(c2ccc(F)c(C)c2)c2nnnn2C)n1 [Example 53]	3.55	
CCCCCC(=O)Nc1cccc(CON=C(c2cccc(F)c2C)c2nnnn2C)n1 [Example 112]	3.96	
CCCCCOC(=O)Nc1cccc(CON=C(c2ccc(C)cc2Cl)c2nnnn2C)n1 [Example 92]	4.54	
Cc1ccc(C(=NOCc2cccc(NC(=O)CC(C)C)n2)c2nnnn2C)cc1C(F)(F)F [Example 69]	4.14	
Cn1nnnc1C(=NOCc1cccc(N)n1)c1cc(C(F)(F)F)ccc1Cl [Example 133]		Log p: 1.72
CCCCCOC(=O)Nc1cccc(CON=C(c2cccc(C(F)(F)F)c2Cl)c2nnnn2C)n1 [Example 87]	4.81	
Cc1cc(F)cc(C(=NOCc2cccc(NC(=O)CC(C)C)n2)c2nnnn2C)c1 (single isomer, unassigned) [Example 157]		Log p: 3.71
Cc1ccc(C(F)(F)F)cc1C(=NOCc1cccc(NC(=O)CC(C)C)n1)c1nnnn1C [Example 67]	3.62	
CCCCCC(=O)Nc1cccc(CON=C(c2ccc(F)c(C)c2)c2nnnn2C)n1 [Example 119]	4.11	
Cc1cc(C(=NOCc2csc(NCC3CC3)n2)c2nnnn2C)ccc1F [Example 154, N-(cyclopropylmethyl)-4-[({[(4-fluoro-3-methylphenyl)(1-methyl-1H-tetrazol-5-yl)methylidene]amino}oxy)methyl]-1,3-thiazol-2-amine]		chromatographic logP (reversed phase HPLC column, read-out: Log p): 2.71
COc1ccccc1CC(=O)Nc1cccc(CON=C(c2ccc(F)c(C)c2)c2nnnn2C)n1 [Example 61]	3.9	
Cc1cccc(C(=NOCc2cccc(NC(=O)CC(C)C)n2)c2nnnn2C)c1F [Example 33]	3.51	
CCCCCC(=O)Nc1cccc(CON=C(c2cc(C)ccc2F)c2nnnn2C)n1 [Example 29]	3.83	
CCCCC(=O)Nc1ccnc(CON=C(c2ccc(C)c(C(F)(F)F)c2)c2nnnn2C)n1 [Example 90]	3.94	
CCCCCOC(=O)Nc1ccnc(CON=C(c2ccc(C)c(C(F)(F)F)c2)c2nnnn2C)n1 [Example 122]	4.59	
CCCCCC(=O)Nc1cccc(CON=C(c2cc(C)ccc2F)c2nnnn2C)n1 [Example 42]	3.83	
CCCCC#Cc1nc(CON=C(c2ccc(F)c(C)c2)c2nnnn2C)cs1 [Example 152]		Log p: 4.78
